In ChEMBL document CHEMBL1140879, “Synthesis of isothiazol-3-one derivatives as inhibitors of histone acetyltransferases (HATs)” (Bioorg Med Chem, 2009) one finds IC50 data, which are given here for 22 molecules.

One may read the IC50 as the concentration that gives 50% inhibition.

The target of assay [1] is Histone acetyltransferase KAT2B (Homo sapiens, UniProt Q92831). The experiment in a line: Inhibition of GST-fused recombinant HAT PCAF expressed in Escherichia coli by filter assay.
Assay [2] has as its target T1, Histone acetyltransferase p300 (Homo sapiens, UniProt Q09472). Nature of the assay: Inhibition of HAT p300.
The target of assay [3] is T1, Histone acetyltransferase p300. The experiment in a line: Inhibition of GST-fused recombinant HAT p300 expressed in Escherichia coli by filter assay.
Assay [4] shares this target. The experiment in a line: Inhibition of recombinant His-tagged HAT p300 expressed in Sf21-Baculovirus system.

Structures are written as SMILES.

Sequence of Histone acetyltransferase KAT2B (Q92831 whole entry, the tested form may be a part): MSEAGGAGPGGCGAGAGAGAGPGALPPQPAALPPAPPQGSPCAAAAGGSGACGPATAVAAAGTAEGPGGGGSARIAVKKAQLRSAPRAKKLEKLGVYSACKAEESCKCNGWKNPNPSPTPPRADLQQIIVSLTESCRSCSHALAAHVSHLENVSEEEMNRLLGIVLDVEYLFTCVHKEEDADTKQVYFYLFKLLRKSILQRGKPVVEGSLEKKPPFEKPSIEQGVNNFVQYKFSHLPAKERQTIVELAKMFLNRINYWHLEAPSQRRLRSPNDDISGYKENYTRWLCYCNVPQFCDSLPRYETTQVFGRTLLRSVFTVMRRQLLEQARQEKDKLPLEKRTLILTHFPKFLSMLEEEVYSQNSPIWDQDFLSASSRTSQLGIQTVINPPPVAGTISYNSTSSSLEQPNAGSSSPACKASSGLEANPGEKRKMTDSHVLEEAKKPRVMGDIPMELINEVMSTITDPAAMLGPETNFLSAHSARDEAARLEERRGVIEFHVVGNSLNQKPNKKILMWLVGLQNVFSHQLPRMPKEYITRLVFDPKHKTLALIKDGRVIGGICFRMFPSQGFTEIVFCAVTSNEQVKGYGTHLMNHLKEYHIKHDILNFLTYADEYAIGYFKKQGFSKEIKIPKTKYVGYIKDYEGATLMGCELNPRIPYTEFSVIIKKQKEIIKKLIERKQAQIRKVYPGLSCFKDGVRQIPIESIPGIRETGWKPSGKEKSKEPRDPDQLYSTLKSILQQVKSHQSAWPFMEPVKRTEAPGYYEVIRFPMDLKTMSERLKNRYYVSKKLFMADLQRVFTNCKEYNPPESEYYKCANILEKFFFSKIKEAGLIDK
T1 sequence (Q09472 whole entry, the tested form may be a part): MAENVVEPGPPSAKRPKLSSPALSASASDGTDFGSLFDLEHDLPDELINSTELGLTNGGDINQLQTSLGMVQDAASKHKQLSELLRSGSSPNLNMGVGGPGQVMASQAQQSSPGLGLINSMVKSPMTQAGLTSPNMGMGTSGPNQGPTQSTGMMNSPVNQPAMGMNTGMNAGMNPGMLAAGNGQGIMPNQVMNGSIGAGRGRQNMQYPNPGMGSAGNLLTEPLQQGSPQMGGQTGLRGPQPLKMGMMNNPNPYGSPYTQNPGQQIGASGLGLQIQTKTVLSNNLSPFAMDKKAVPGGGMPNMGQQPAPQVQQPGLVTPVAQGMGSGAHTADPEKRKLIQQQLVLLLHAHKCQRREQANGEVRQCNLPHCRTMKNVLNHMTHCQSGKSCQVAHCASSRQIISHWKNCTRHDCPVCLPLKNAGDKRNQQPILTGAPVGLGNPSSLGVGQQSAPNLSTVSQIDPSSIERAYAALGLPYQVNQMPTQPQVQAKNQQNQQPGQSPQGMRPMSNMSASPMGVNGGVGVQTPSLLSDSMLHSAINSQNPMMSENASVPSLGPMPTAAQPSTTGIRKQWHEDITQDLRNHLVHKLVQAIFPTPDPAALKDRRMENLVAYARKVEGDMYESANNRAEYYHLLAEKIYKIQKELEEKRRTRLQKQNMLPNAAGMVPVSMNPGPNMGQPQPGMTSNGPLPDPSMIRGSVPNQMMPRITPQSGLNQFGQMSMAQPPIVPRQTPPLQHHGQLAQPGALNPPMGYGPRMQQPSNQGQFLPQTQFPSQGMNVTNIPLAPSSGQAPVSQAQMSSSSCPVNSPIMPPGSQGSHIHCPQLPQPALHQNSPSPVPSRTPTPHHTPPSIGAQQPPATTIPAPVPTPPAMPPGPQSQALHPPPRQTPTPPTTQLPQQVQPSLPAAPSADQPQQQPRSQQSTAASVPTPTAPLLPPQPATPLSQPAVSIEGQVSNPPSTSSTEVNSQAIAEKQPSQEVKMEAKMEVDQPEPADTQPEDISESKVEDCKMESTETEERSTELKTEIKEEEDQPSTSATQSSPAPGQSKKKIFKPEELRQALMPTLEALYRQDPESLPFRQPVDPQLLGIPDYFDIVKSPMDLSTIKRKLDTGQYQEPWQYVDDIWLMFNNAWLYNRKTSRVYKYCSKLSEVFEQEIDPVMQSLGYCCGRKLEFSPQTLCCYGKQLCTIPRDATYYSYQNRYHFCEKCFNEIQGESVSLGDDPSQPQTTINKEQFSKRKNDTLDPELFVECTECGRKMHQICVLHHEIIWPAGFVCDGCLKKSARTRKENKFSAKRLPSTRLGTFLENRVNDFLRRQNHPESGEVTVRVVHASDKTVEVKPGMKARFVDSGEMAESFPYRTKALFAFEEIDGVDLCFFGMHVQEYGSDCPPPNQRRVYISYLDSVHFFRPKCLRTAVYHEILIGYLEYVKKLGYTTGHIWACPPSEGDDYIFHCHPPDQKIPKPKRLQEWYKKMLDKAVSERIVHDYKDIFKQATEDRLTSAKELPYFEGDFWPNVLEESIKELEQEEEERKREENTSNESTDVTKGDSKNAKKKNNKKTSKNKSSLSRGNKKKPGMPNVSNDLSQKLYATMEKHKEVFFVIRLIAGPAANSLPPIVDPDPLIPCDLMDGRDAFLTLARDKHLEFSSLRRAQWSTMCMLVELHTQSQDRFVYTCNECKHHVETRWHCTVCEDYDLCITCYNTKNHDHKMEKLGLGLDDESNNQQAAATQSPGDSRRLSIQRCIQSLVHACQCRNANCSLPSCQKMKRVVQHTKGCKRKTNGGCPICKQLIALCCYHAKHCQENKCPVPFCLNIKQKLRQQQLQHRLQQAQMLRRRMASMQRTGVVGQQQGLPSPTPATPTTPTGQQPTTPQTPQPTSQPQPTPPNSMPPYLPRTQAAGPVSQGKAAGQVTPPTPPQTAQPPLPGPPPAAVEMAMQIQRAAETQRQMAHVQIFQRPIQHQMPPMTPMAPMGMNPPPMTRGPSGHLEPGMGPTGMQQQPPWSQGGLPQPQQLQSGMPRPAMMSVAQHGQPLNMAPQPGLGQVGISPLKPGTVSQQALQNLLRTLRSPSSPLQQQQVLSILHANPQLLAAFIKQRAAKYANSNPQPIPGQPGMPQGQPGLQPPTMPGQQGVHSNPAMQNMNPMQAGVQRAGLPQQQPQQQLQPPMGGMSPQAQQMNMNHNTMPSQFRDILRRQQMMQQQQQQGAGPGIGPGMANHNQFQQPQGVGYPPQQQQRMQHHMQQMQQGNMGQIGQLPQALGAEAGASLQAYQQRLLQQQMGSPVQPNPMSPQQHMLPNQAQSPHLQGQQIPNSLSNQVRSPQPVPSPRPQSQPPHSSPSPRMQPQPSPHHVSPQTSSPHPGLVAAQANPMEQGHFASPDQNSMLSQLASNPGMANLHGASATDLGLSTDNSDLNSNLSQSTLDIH

Regarding `Cc1csn(-c2ccccc2)c1=O`, the 50% inhibitory concentration (IC50) in assay [1] amounted to 32 µM.

With `CN(C)c1ccc(-n2sccc2=O)cc1`, the IC50 in assay [1] turned out to be 5.4 µM.

Turning to `O=c1cc(CO)sn1-c1ccccc1`, the IC50 in assay [1] stood at 109 µM.

Regarding `Cc1cc(=O)n(-c2ccccc2)s1`, the IC50 in assay [1] is greater than 200 µM.

As to `CC(=O)OCc1cc(=O)n(-c2ccccc2)s1`, the IC50 in assay [1] turned out to be 162 µM.

In assay [2], `C=C(C)[C@@H](CC=C(C)C)C[C@@]12C[C@@H](CC=C(C)C)C(C)(C)[C@@](CC=C(C)C)(C(=O)C(C(=O)c3ccc(O)c(O)c3)=C1O)C2=O` [GARCINOL] registered an IC50 of 6 µM.

As to `O=c1ccsn1-c1cc(F)c(F)c(F)c1`, the IC50 in assay [1] stood at 3.1 µM.

Consider `[N-]=[N+]=NCc1csn(-c2ccccc2)c1=O`, for which the IC50 in assay [1] came out at 42.7 µM.

In the case of `Cc1c(Cl)sn(-c2ccccc2)c1=O`, the IC50 in assay [1] stood at 19.8 µM.

For `COc1sn(-c2ccccc2)c(=O)c1C`, the IC50 in assay [1] was greater than 200 µM.

For the molecule `O=c1ccsn1-c1cccnc1`, the IC50 in assay [1] was found to be 6.5 µM; in assay [3], 14.4 µM.

As to `COCc1csn(-c2ccccc2)c1=O`, the IC50 in assay [1] stood at 102 µM.

In the case of `O=c1c2cccnc2sn1-c1ccccc1`, the IC50 in assay [1] turned out to be 6.1 µM.

With `O=C(Nc1ccccc1)OCc1cc(=O)n(-c2ccccc2)s1`, in assay [1], the half-inhibitory concentration (IC50) is greater than 200 µM.

In the case of `O=c1cc(-c2ccccc2)sn1-c1ccccc1`, in assay [1], the IC50 is greater than 200 µM.

`O=c1ccsn1-c1ccc(N2CCOCC2)cc1`: the values for the IC50 in assay [1] and in assay [3] were 7.5 µM and 9.9 µM, respectively.

As for `O=c1ccsn1-c1ccccn1`, the IC50 in assay [1] was 19 µM; in assay [3] it was 28 µM.

As for `O=c1ccsn1-c1ccncc1`, the 50% inhibitory concentration (IC50) in assay [1] stood at 1.5 µM; in assay [3], 3 µM.

As to `C=CC/C=C\C/C=C\CCCCCCCc1cccc(O)c1C(=O)O` [ANACARDIC ACID], in assay [4], the IC50 turned out to be 5 µM.

On to `O=c1ccsn1-c1ccccc1`, for which the IC50 amounted to 28 µM in assay [1] and 23 µM in assay [3].

Consider `O=c1ccsn1-c1cccc(Cl)c1F`, for which the IC50 in assay [1] was determined as 5.4 µM.

Consider `[N-]=[N+]=NCc1cc(=O)n(-c2ccccc2)s1`, for which the half-inhibitory concentration (IC50) in assay [1] was 58 µM.
